Where two headings read alike, the source gives them in different places.
Assays:
S. epidermidis C621 = experiment: MIC microtitre broth dilution, S. epidermidis; type: cell-based; conditions: S. epidermidis C621 wt Gram+, 24 h
Protocol: (§1) MIC assays were conducted essentially as described by Amsterdam, D 1996, “Susceptibility testing of antimicrobials in liquid media”, p. 52-111, in Loman, V, ed. Antibiotics in laboratory medicine, 4th ed Williams and Wilkins, Baltimore, Md.

S. pyogenes C721 = experiment: MIC microtitre broth dilution, S. pyogenes; type: cell-based; conditions: S. pyogenes C721 wt Gram+, Todd Hewitt broth
Protocol: as §1

S. aureus ATCC25923 C622 = experiment: MIC microtitre broth dilution, S. aureus; type: cell-based; conditions: S. aureus ATCC25923 C622 wt Gram+, 24 h
Protocol: as §1

E. coli UB1005 C498 = experiment: MIC microtitre broth dilution, E. coli; type: cell-based; conditions: E. coli UB1005 C498 wt Gram−, 24 h
Protocol: as §1

[1] = system: P. aeruginosa PAE/K799 H187; experiment: MIC microtitre broth dilution, P. aeruginosa; type: cell-based; conditions: P. aeruginosa PAE/K799 H187 wt Gram−, 24 h
Protocol: as §1

[2] = system: K. pneumoniae ATCC13883 C238; experiment: MIC microtitre broth dilution, K. pneumoniae; type: cell-based; conditions: K. pneumoniae ATCC13883 C238 wt Gram−, 24 h
Protocol: as §1

[3] = system: MCP-1 production by THP-1 cells; experiment: MCP-1 production by macrophages; type: cell-based, human; conditions: THP-1 cells stimulated with opsonized zymosan, 24 hours, read-out: IC50 MCP-1 production
Protocol: (§2) The human macrophage cell line, THP-1 was plated in a 12 well plate such that each well contains 1×10^6 cells in 2 ml of media containing 10% FCS. Opsonized zymosan was prepared by resuspending 20 mg of zymosan A in 2 ml of ddH2O and homogenizing until a uniform suspension was obtained. Homogenized zymosan was pelleted at 250 g and resuspended in 4 ml of human serum for a final concentration of 5 mg/ml and incubated in a 37° C. water bath for 20 minutes to enable opsonization. Geldanamycin was prepared in DMSO at a concentration of 10^−2 M and serially diluted 10-fold to give a range of stock concentrations (10^−8 M to 10^−2 M).
THP-1 cells were stimulated to produce MCP-1 by the addition of 1 mg/ml opsonized zymosan. […] was added to THP-1 cells by directly adding DMSO stock solutions, prepared earlier, at a 1/1000 dilution, to each well. Each drug concentration was tested in triplicate wells. Plates were incubated at 37° C. for 24 hours.
After a 24-hour stimulation, supernatants were collected to quantify MCP-1 production. MCP-1 concentrations in the supernatants were determined by ELISA using recombinant human MCP-1 to obtain a standard curve. A 96-well MaxiSorb plate was coated with 100 μL of anti-human MCP-1 Capture Antibody diluted in Coating Buffer (0.1M sodium carbonate pH 9.5) overnight at 4° C. The dilution of Capture Antibody used was lot-specific and was determined empirically. Capture antibody was then aspirated and the plate washed 3 times with Wash Buffer (PBS, 0.05% TWEEN-20). Plates were blocked for 1 hour at room temperature with 200 μL/well of Assay Diluent (PBS, 10% FCS pH 7.0). After blocking, plates were washed 3 times with Wash Buffer. […] Sample supernatants and standards were assayed in triplicate and were incubated at room temperature for 2 hours after addition to the plate coated with Capture Antibody. The plates were washed 5 times and incubated with 100 μL of Working Detector (biotinylated anti-human MCP-1 detection antibody+avidin-HRP) for 1 hour at room temperature. Following this incubation, the plates were washed 7 times and 100 μL of Substrate Solution (tetramethylbenzidine, H2O2) was added to plates and incubated for 30 minutes at room temperature. […] Mean absorbance was determined from triplicate data readings and the mean background was subtracted. MCP-1 concentration values were obtained from the standard curve.

[4] = system: TNFα production by THP-1 cells; experiment: TNF-alpha production by macrophages; type: cell-based, human; conditions: THP-1 cells stimulated with opsonized zymosan, 24 hours; read-out: IC50 TNFα production
Protocol: as §2, with “12-well” for “12 well”, “opsonization.” for “opsonization. Geldanamycin was prepared in DMSO at a concentration of 10^−2 M and serially diluted 10-fold to give a range of stock concentrations (10^−8 M to 10^−2 M).”
THP-1 cells were stimulated to produce TNFα by the addition of 1 mg/ml opsonized zymosan. […] Each drug concentration was tested in triplicate wells. Plates were incubated at 37° C. for 24 hours.
After a 24-hour stimulation, supernatants were collected to quantify TNFα production. TNFα concentrations in the supernatants were determined by ELISA using recombinant human TNFα to obtain a standard curve A 96-well MaxiSorb plate was coated with 100 μL of anti-human TNFα Capture Antibody diluted in Coating Buffer (0.1M sodium carbonate pH 9 5) overnight at 4° C. The dilution of Capture Antibody used was lot-specific and was determined empirically. Capture antibody was then aspirated and the plate washed 3 times with Wash Buffer (PBS, 0.05% TWEEN-20) Plates were blocked for 1 hour at room temperature with 200 μL/well of Assay Diluent (PBS, 10% FCS pH 7.0). After blocking, plates were washed 3 times with Wash Buffer. […] Sample supernatants and standards were assayed in triplicate and were incubated at room temperature for 2 hours after addition to the plate coated with Capture Antibody. The plates were washed 5 times and incubated with 100 μL of Working Detector (biotinylated anti-human TNFα detection antibody+avidin-HRP) for 1 hour at room temperature. Following this incubation, the plates were washed 7 times and 100 μL of Substrate Solution (tetramethylbenzidine, H2O2) was added to plates and incubated for 30 minutes at room temperature. […] Mean absorbance was determined from triplicate data readings and the mean background was subtracted. TNFα concentration values were obtained from the standard curve.

[5] = system: nitric oxide production by macrophages (murine macrophage cell line RAW 264.7); experiment: Nitric oxide production by macrophages; type: cell-based
Smooth muscle cells = experiment: Proliferation of smooth muscle cells; type: cell-based; conditions: 72 hours, CYQUANT; read-out: IC50 proliferation of smooth muscle cells
Outline: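 Smooth muscle cells at 600 cells/well, exposed to paclitaxel (DMSO stocks 10^−8 to 10^−2 M) in triplicate for 72 h at 37 °C. Proliferation read with CyQUANT GR dye in lysis buffer.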

| SMILES | Minimum inhibitory concentration (S. epidermidis C621) | Minimum inhibitory concentration (S. pyogenes C721) | Minimum inhibitory concentration (S. aureus ATCC25923 C622) | Minimum inhibitory concentration (E. coli UB1005 C498) | Minimum inhibitory concentration [1] | Minimum inhibitory concentration [2] | IC50 [3] | IC50 [4] | IC50 [5] | IC50 (Smooth muscle cells) | IC50 ([3]; Homo sapiens) |
| --- | --- | --- | --- | --- | --- | --- | --- | --- | --- | --- | --- |
| O=c1[nH]cc(F)c(=O)[nH]1 [5-fluorouracil] | 10^−7 Molar | 10^−4 Molar | 10^−7 Molar | 10^−6 Molar | 10^−5 Molar | 10^−6 Molar |  |  |  |  |  |
| C/C(=N\N=C(N)N)c1cc(NC(=O)CCCCCCCCC(=O)Nc2cc(/C(C)=N/N=C(N)N)cc(/C(C)=N/N=C(N)N)c2)cc(/C(C)=N/N=C(N)N)c1 [CNI-1493] |  |  |  |  |  |  | 0.02 nM | 0.15 nM | 249 nM |  |  |
| CC[C@@]1(O)C(=O)OCc2c1cc1n(c2=O)Cc2cc3ccccc3nc2-1 [camptothecin] | 10^−4 Molar | N | N | N | N | N |  |  |  |  |  |
| N.N.[Cl][Pt][Cl] [cisplatin] | N | N | N | N | 10^−4 Molar | N |  |  |  |  |  |
| Nc1ccn([C@@H]2O[C@H](CO)[C@@H](O)[C@@H]2O)c(=O)n1 [cytarabine] | N | N | N | N | N | N |  |  |  | 85 nM |  |
| COc1cccc2c1C(=O)c1c(O)c3c(c(O)c1C2=O)C[C@@](O)(C(=O)CO)C[C@@H]3O[C@H]1C[C@H](N)[C@H](O)[C@H](C)O1 [doxorubicin] | 10^−6 Molar | 10^−7 Molar | 10^−5 Molar | 10^−4 Molar | 10^−5 Molar | 10^−6 Molar |  |  |  | 64 nM |  |
| COc1cc([C@@H]2c3cc4c(cc3[C@@H](O[C@@H]3O[C@@H]5CO[C@@H](C)O[C@H]5[C@H](O)[C@H]3O)[C@H]3COC(=O)[C@H]23)OCO4)cc(OC)c1O [etoposide] | 10^−6 Molar | 10^−5 Molar | 10^−5 Molar | N | N | 10^−5 Molar |  |  |  | 320 nM |  |
| NC(=O)NO [hydroxyurea] | N | 10^−4 Molar | N | N | 10^−4 Molar | N |  |  |  |  |  |
| CN(Cc1cnc2nc(N)nc(N)c2n1)c1ccc(C(=O)N[C@@H](CCC(=O)O)C(=O)O)cc1 [methotrexate] | N | 10^−6 Molar | 10^−5 Molar | N | N | 10^−6 Molar |  |  |  |  |  |
| O=C1c2c(O)ccc(O)c2C(=O)c2c(NCCNCCO)ccc(NCCNCCO)c21 [mitoxantrone, 9,10-anthracenedione, 1,4-dihydroxy-5,8-bis((2-((2-hydroxyethyl)amino)ethyl)amino)-] |  |  |  | 10^−5 Molar |  |  |  |  |  | 1 nM | 62 nM |
| Nc1ncnc2c1ccn2[C@@H]1O[C@H](CO)[C@@H](O)[C@H]1O [tubercidin] | N | N | N | N | N | N | 56 nM |  |  | 30 nM |  |

Reference: patent US20090226500A1, “SUTURES AND ANTI-SCARRING AGENTS” (Angiotech Pharmaceuticals, Inc, priority 2006, published 2009)
